Assay results taken from patent publication US12312359B2 (Vitae Pharmaceuticals, LLC, priority 2016, dated 2025).

How the values were obtained:
[1] = biological target: T1, biotinylated wild-type menin and MLL-AF9 fusion protein (menin/MLL binding) (Homo sapiens, UniProt O00255); test: Assay 1: menin/MLL binding AlphaLISA assay, wild-type menin; details: Table 30; column head does not say wild-type or mutated menin
T1 construct: made in house; host or cells: menin: E. coli; MLL-AF9-FLAG: HEK293 cells, used as cleared lysate
T1 sequence (O00255 1-610): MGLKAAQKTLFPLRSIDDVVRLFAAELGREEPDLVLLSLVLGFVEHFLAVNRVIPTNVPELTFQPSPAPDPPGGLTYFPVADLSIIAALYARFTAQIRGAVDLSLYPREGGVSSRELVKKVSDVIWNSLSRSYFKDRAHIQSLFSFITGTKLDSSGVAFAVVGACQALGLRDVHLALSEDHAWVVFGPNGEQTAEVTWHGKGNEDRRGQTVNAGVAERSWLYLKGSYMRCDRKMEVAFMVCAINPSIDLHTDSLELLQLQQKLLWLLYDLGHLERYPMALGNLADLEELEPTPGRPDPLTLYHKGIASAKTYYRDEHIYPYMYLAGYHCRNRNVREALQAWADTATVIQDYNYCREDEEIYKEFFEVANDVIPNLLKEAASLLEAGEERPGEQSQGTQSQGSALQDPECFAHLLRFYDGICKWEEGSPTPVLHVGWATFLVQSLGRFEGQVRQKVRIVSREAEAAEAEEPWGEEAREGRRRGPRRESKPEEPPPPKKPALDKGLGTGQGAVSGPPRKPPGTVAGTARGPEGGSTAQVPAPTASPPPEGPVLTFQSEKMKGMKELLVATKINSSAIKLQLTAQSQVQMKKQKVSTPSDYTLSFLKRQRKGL
How it was run: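 Compound was preincubated 30 min at room temperature with biotinylated menin (5 nM) and MLL-AF9-FLAG lysate from HEK293 cells, pH 7.4 buffer with 5% DMSO and DTT. Bead-based Alpha signal after 60 min with streptavidin donor and anti-FLAG acceptor beads; four-parameter logistic fit gave IC50.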

[2] = tested on: human acute monocytic leukemia cell line MV-4-11; test: Assay 2: cell proliferation assay (ATP quantitation, CellTiter-Glo), MV-4-11; format: cell-based; details: MV-4-11 cells
How it was run: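 Read-out is CellTiter-Glo luminescence quantifying ATP. Compound exposure lasted 72 h at 37° C., 5% CO2, with 1.67×10^4 MV-4-11 cells per well in 10% FBS medium, alongside HL-60 toxicity-control cells.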

Row | IC50 [1] [µM] | EC50 ([2]; 72 h) [µM] | EC50 ([2]; Homo sapiens, MV4-11, 72 h) [µM] | Structure (SMILES)
1 | < 0.1 | ≥ 1 | – | Cc1cc(C#N)ccc1-c1cc(F)ccc1Oc1cncnc1N1CCC2(CCN(Cc3ccc4[nH]c(=O)[nH]c4c3)C2)C1 (stereo not drawn) [Example 226, 5′-fluoro-2-methyl-2′-((4-(7-((2-oxo-2,3-dihydro-1H-benzo[d]imidazol-5-yl)methyl)-2,7-diazaspiro[4.4]nonan-2-yl)pyrimidin-5-yl)oxy)-[1,1′-biphenyl]-4-carbonitrile]
2 | < 0.1 | – | < 0.1 | CCN(C(=O)C(C)C)c1cc(F)ccc1Oc1cncnc1N1CC2(CCN(C[C@H]3CC[C@H](NC(=O)OC(C)(C)C)CC3)CC2)C1 [Example 84, tert-butyl ((1r,4r)-4-((2-(5-(2-(N-ethylisobutyramido)-4-fluorophenoxy)pyrimidin-4-yl)-2,7-diazaspiro[3.5]nonan-7-yl)methyl)cyclohexyl) carbamate]
3 | < 0.1 | – | 0.1 to 1 | CC(C)c1ncncc1-c1cc(F)ccc1Oc1cncnc1N1CC2(CN(CC3CCC4(CC3)OCCO4)C2)C1 [Example 64, 2-(1,4-dioxaspiro[4.5]decan-8-ylmethyl)-6-(5-(4-fluoro-2-(4-isopropylpyrimidin-5-yl)phenoxy)pyrimidin-4-yl)-2,6-diazaspiro[3.3]heptane]
4 | < 0.1 | – | < 0.1 | CC(C)N(C(=O)c1cc(F)ccc1Oc1cncnc1N1CC2(CCN(C3CCc4cc(C#N)ccc4C3)C2)C1)C(C)C (stereo not drawn) [Example 104, 2-((4-(6-(6-cyano-1,2,3,4-tetrahydro-naphthalen-2-yl)-2,6-diazaspiro[3.4]octan-2-yl)pyrimidin-5-yl)oxy)-5-fluoro-N,N-diisopropyl-benzamide]
5 | < 0.1 | – | < 0.1 | CC(C)C(=O)N(C)c1cc(F)ccc1Oc1cncnc1N1CC2(CN(CC[C@H]3CC[C@H](NC(=O)OC(C)(C)C)CC3)C2)C1 [Example 138, tert-butyl ((1r,4r)-4-(2-(6-(5-(4-fluoro-2-(N-methyl-isobutyramido)phenoxy)pyrimidin-4-yl)-2,6-diazaspiro [3.3]heptan-2-yl)ethyl)cyclohexyl)carbamate]
6 | < 0.1 | – | 0.1 to 1 | CC(C)CCc1cc(F)ccc1Oc1cncnc1N1CCC2(CCN(Cc3ccc4[nH]c(=O)[nH]c4c3)C2)C1 (stereo not drawn) [Example 235, 5-((7-(5-(4-fluoro-2-isopentylphenoxy)pyrimidin-4-yl)-2,7-diazaspiro[4.4]nonan-2-yl)methyl)-1,3-dihydro-2H-benzo[d]imidazol-2-one]
7 | < 0.1 | – | < 0.1 | CC(C)N(C(=O)c1cc(F)ccc1Oc1cncnc1N1CC2(CCN(CC3CCOCC3)C2)C1)C(C)C [Example 111, 5-fluoro-N,N-diisopropyl-2-((4-(6-((tetrahydro-2H-pyran-4-yl)methyl)-2,6-diazaspiro[3.4]octan-2-yl)pyrimidin-5-yl)oxy)benzamide]
8 | < 0.1 | – | 0.1 to 1 | O=c1[nH]c2ccc(CN3CCC4(CCN(c5ncncc5Oc5ccc(F)cc5OCC5CC5)C4)C3)cc2[nH]1 (stereo not drawn) [Example 54, 5-((7-(5-(2-(cyclopropylmethoxy)-4-fluorophenoxy)pyrimidin-4-yl)-2,7-diazaspiro[4.4]nonan-2-yl)methyl)-1,3-dihydro-2H-benzo[d]imidazol-2-one]
9 | < 0.1 | – | < 0.1 | CC(C)c1ncncc1-c1cc(F)ccc1Oc1cncnc1N1CC2(CN(CC3CCCC(F)(F)C3)C2)C1 (stereo not drawn) [Example 232, 2-((3,3-difluorocyclohexyl)methyl)-6-(5-(4-fluoro-2-(4-isopropylpyrimidin-5-yl)phenoxy)pyrimidin-4-yl)-2,6-diazaspiro[3.3] heptane]
10 | < 0.1 | < 0.1 | – | CC(C)c1ncncc1-c1cc(F)ccc1Oc1cncnc1N1CCC2(CCN(Cc3ccc4[nH]c(=O)[nH]c4c3)C2)C1 (single isomer, unassigned) [Example 160B, 5-((7-(5-(4-fluoro-2-(4-isopropylpyrimidin-5-yl)phenoxy)pyrimidin-4-yl)-2,7-diazaspiro[4.4]nonan-2-yl)methyl)-1,3-dihydro-2H-benzo[d]imidazol-2-one]
11 | < 0.1 | – | 0.1 to 1 | CC(C)N(C(=O)c1cc(F)ccc1Nc1cncnc1N1CCC2(CC1)CN(C1CCC(NS(C)(=O)=O)CC1)C2)C(C)C (single isomer, unassigned) [Example 248A, 5-fluoro-N,N-diisopropyl-2-((4-(2-(4-(methylsulfonamido)cyclohexyl)-2,7-diazaspiro[3.5]nonan-7-yl)pyrimidin-5-yl)amino) benzamide]
12 | < 0.1 | – | 0.1 to 1 | O=C(c1cc(F)ccc1Oc1cncnc1N1CCC2(CCN(Cc3ccc4[nH]c(=O)[nH]c4c3)C2)C1)N1CCOCC1 (stereo not drawn) [Example 155, 5-((7-(5-(4-fluoro-2-(morpholine-4-carbonyl)phenoxy)pyrimidin-4-yl)-2,7-diaza-spiro[4.4]nonan-2-yl)methyl)-1,3-dihydro-2H-benzo[d]imidazol-2-one]
13 | < 0.1 | – | 0.1 to 1 | CC1CCCN1C(=O)c1cc(F)ccc1Oc1cncnc1N1CCC2(CCN(Cc3ccc4[nH]c(=O)[nH]c4c3)C2)C1 (stereo not drawn) [Example 211, 5-((7-(5-(4-fluoro-2-(2-methylpyrrolidine-1-carbonyl)phenoxy)pyrimidin-4-yl)-2,7-diazaspiro[4.4]nonan-2-yl)methyl)-1,3-dihydro-2H-benzo [d]imidazol-2-one]
14 | < 0.1 | – | 0.1 to 1 | CCN(C(=O)C(C)C)c1cc(F)ccc1Oc1cncnc1N1CC2(CN(C(=O)Cc3ccc(S(C)(=O)=O)cc3)C2)C1 [Example 119, N-ethyl-N-(5-fluoro-2-((4-(6-(2-(4-(methylsulfonyl)phenyl)acetyl)-2,6-diazaspiro[3.3]heptan-2-yl)pyrimidin-5-yl)oxy)phenyl)isobutyramide]
15 | < 0.1 | – | 0.1 to 1 | CC(C)N(C)C(=O)c1cc(F)ccc1Oc1cncnc1N1CCC2(CCN(Cc3ccc4c(c3)[nH]c(=O)n4CCN(C)C)C2)C1 (stereo not drawn) [Example 124, 2-((4-(7-((1-(2-(dimethylamino)ethyl)-2-oxo-2,3-dihydro-1H-benzo[d]imidazol-5-yl)methyl)-2,7-diazaspiro[4.4]nonan-2-yl)pyrimidin-5-yl)oxy)-5-fluoro-N-isopropyl-N-methylbenzamide]
16 | 0.1 to 1 | – | ≥ 1 | NS(=O)(=O)c1ccc2c(c1)CC(C(=O)N1CC3(C1)CN(c1ncncc1Oc1ccc(F)cc1Cl)C3)C2 (stereo not drawn) [Example 40, 2-(6-(5-(2-chloro-4-fluorophenoxy)pyrimidin-4-yl)-2,6-diazaspiro[3.3]heptane-2-carbonyl)-2,3-dihydro-1H-indene-5-sulfonamide]
17 | < 0.1 | ≥ 1 | – | CC(C)N(C)C(=O)c1cc(F)ccc1Oc1cncnc1N1CCC2(CCN(Cc3ccc(N4CCOC4=O)cc3)C2)C1 (stereo not drawn) [Example 142, 5-fluoro-N-isopropyl-N-methyl-2-((4-(7-(4-(2-oxooxazolidin-3-yl)benzyl)-2,7-diazaspiro[4.4]nonan-2-yl)pyrimidin-5-yl)oxy)benzamide]
18 | < 0.1 | – | < 0.1 | CCN(C(=O)c1cc(F)ccc1Oc1cncnc1N1CCC2(CCN(Cc3ccc4c(c3)[nH]c(=O)n4CCO)C2)C1)C(C)C (stereo not drawn) [Example 4, N-ethyl-5-fluoro-2-((4-(7-((1-(2-hydroxyethyl)-2-oxo-2,3-dihydro-1H-benzo[d]imidazol-5-yl)methyl)-2,7-diazaspiro[4.4]nonan-2-yl)pyrimidin-5-yl)oxy)-N-isopropylbenzamide]
19 | < 0.1 | – | < 0.1 | Cn1c(-c2cc(F)ccc2Oc2cncnc2N2CCC3(CCN(Cc4ccc5[nH]c(=O)[nH]c5c4)C3)C2)c(C2CC2)ccc1=O (single isomer, unassigned) [Example 29A, 5-((7-(5-(2-(3-cyclopropyl-1-methyl-6-oxo-1,6-dihydropyridin-2-yl)-4-fluorophenoxy)pyrimidin-4-yl)-2,7-diazaspiro[4.4]nonan-2-yl)methyl)-1,3-dihydro-2H-benzo[d]imidazol-2-one]
20 | < 0.1 | – | < 0.1 | CC(C)N(C(=O)c1cc(F)ccc1Oc1cncnc1N1CC2(CN(CC3CCOCC3)C2)C1)C(C)C [Example 112, 5-fluoro-N,N-diisopropyl-2-((4-(6-((tetrahydro-2H-pyran-4-yl)methyl)-2,6-diazaspiro[3.3]heptan-2-yl)pyrimidin-5-yl)oxy)benzamide]
21 | < 0.1 | – | < 0.1 | CC(CO)c1ccccc1-c1cc(F)ccc1Oc1cncnc1N1CCC2(CCN(Cc3ccc4[nH]c(=O)[nH]c4c3)C2)C1 (stereo not drawn) [Example 69, 5-((7-(5-((5-fluoro-2′-(1-hydroxypropan-2-yl)-[1,1′-biphenyl]-2-yl)oxy)pyrimidin-4-yl)-2,7-diazaspiro[4.4]nonan-2-yl)methyl)-1H-benzo[d]imidazol-2(3H)-one]
